Values of other authors as cited in patent US5550128A, “Enantiomers of gamma methylene 10-deaza aminopterin and process for preparing the same” (priority 1994, dated 1996).

Tests used:
L1210 leukemia = conditions: animals bearing L1210 leukemia; cited from earlier work
P388 leukemia = conditions: animals bearing P388 leukemia; cited from earlier work
[1] = animals; relative to MTX; cited from earlier work

Structure (SMILES): C=C(CC(NC(=O)c1ccc(C(CC)Cc2cnc3nc(N)nc(N)c3n2)cc1)C(=O)O)C(=O)O (stereo not drawn) [MEDAM, γ-methylene-10-ethyl-10-deazaaminopterin]
- in vivo antitumor activity relative to MTX (L1210 leukemia): superior in vivo antitumor activity relative to the polyglutamylatable MTX
- in vivo antitumor activity relative to MTX (P388 leukemia): superior in vivo antitumor activity relative to the polyglutamylatable MTX
- tolerability [1]: tolerated by animals at higher doses
